Assay results: publication PMC6934184, “Selective DNA-PKcs inhibition extends the therapeutic index of localized radiotherapy and chemotherapy” (The Journal of Clinical Investigation, 2019)
Where “and” joins values, the source holds several entries; their conditions need not be identical. Equal entries are not always repeated. Entries after “also recorded” stand apart in the source; their conditions may differ.

Key:
[1] = tested on: Calu-6 subcutaneous xenografts; assay: subcutaneous Calu-6 xenograft with fractionated radiation (4 × 5 Gy); assay type: in vivo, mouse; settings: 30 mg/kg oral 30 min before and 5 h after each of 4 × 5 Gy; CD-1 nude mice
Method: To examine the effect of NU5455 treatment on efficacy versus a late radiation toxicity, a total dose of 20 Gy of thoracic radiation was administered either to CD-1 nude mice bearing subcutaneous Calu-6 tumors or to non–tumor-bearing C57BL/6 mice, as four 5-Gy fractions given on days 1, 4, 7, and 10. This fractionated regimen was adapted from an existing method ([30]), resulting in focal areas of lung fibrosis at 24 weeks following treatment, but at a level that would enable any exacerbation of fibrosis to be readily detected.
Figure 5 NU5455 augments the effect of fractionated radiotherapy in Calu-6 tumors without enhancing late radiation damage to the lung. (A) Mean tumor volume of mice bearing Calu-6 subcutaneous xenografts treated with localized radiation (4 × 5 Gy on days 1, 4, 7, and 10) with either NU5455 (30 mg/kg orally) or vehicle 30 minutes before and 5 hours after each dose of IR (3–5 mice per group). The time taken to reach 2 times the tumor volume at the start of treatment (RTV2) was also assessed. […] Samples were scored using the modified Ashcroft system on a scale of 0 to 8 (5–9 mice per group). […] Statistical significance was assessed using a log-rank test (A) and 1-way ANOVA (B). *P < 0.05, **P < 0.01, ****P < 0.0001.

SJSA-1 tumor xenografts = assay: subcutaneous SJSA-1 xenograft with parenteral etoposide; assay type: in vivo, CD-1 nude mice
Method: Combining systemic administration of etoposide + NU5455 in vivo
SJSA1 cells (1 x 10^7 cells/mouse in 50 µl, 50% v/v Matrigel) were implanted s.c. into the right flank of female CD-1 nude mice. When tumor volumes reached 103-121 mm3 mice were treated daily, for five consecutive days, with NU5455 (30 mg/kg or 100 mg/kg once -daily p.o. in NMP:Encapsin (30% aq):PEG4000 (1:6:3 v/v/v) ) or vehicle, followed immediately with etoposide (5 mg/kg i.p. in saline). Body weight and tumor volume measurements were taken daily during treatment and three times per week post -treatment. Tumor volume was calculated from two-dimensional electronic caliper measurements (Mitutoyo) using the equation ‘width2 x length/2’, where width was the smaller side, and length the longer dimension of the tumor. Mice were humanely killed when; (i) an adverse effect on clinical condition was evident, (ii) tumor bilateral measurements reached 10 mm x 10 mm, (iii) a tumor measurement in any di mension reached 15 mm, or (iv) at study termination. […]

[2] = plasma pharmacokinetics across mouse strains and doses; assay type: in vivo
Method: by determining the absorbance at 570 nm of SRB stain dissolved in Tris base (10 mM, pH 10.5) using a spectrophotometer (BMG Labtech).
In vivo pharmacokinetic analyses
All animal experiments were performed in accordance with the Animals (Scientific Procedures) 1986 Act. 8-9 week old mice were purchased from Charles River Laboratories and housed under specific pathogen-free conditions under 12 hour light/dark cycles.
Female CD-1, CD-1 nude, BALB/c nude and C57BL/6 mice were treated with NU5455 (30 or 100 mg/kg prepared in 1% (v/v) acetic acid or NMP:Encapsin (30% aq):PEG4000 (1:6:3 v/v/v) dosed by oral gavage. Blood samples were collected into heparinized tubes at 15, 30, 60, 180 and 360 minutes post-gavage.
Blood samples were centrifuged at 6700 x g for 3 minutes, the plasma removed and stored at -20°C prior to analysis for drug by HPLC with fluorescence detection. Aliquots of plasma (50 µl) were vigorously vortexed with acetonitrile (450 µl) and the precipitate removed by centrifugation at 6700 x g for 5 minutes. […]
Samples (20 µl) were applied to a 10 x 0.46 cm Genesis C18 4 µm column (Grace Vydac) fitted with an in-line filter. […] Analytes were detected by fluorescence at 390 nm following excitation at 242 nm. Plasma concentrations were determined using linear standard curves (0.01 µM – 10 µM, R2 > 0.98) generated by extracting compounds from […]

SMILES: CN(C(=O)CN1CCOCC1)c1ccc2sc3c(-c4cccc5c(=O)cc(N6CC7CCC(C6)O7)oc45)cccc3c2c1 [NU5455]
- time taken for tumors to double in volume (RTV2) [1]: increase the time taken
- enhancement of etoposide antitumor effect (SJSA-1 tumor xenografts; NU5455 30 mg/kg oral + etoposide 5 mg/kg i.p., 5 consecutive days): does not significantly enhance; also recorded: did not enhance it significantly
- body weight (SJSA-1 tumor xenografts; NU5455 100 mg/kg oral + etoposide 5 mg/kg i.p.): increased weight loss by day 8
- enhancement of etoposide antitumor activity (SJSA-1 tumor xenografts; NU5455 100 mg/kg oral + etoposide 5 mg/kg i.p., 5 sequential days): potentiated significantly
- animals requiring humane intervention (>15% body-weight loss) (SJSA-1 tumor xenografts; day 8, NU5455 100 mg/kg oral + etoposide 5 mg/kg i.p.): 2 of 10 and 2
- tolerability, NU5455 alone (SJSA-1 tumor xenografts; greater dose (100 mg/kg oral)): well tolerated by itself
- plasma pharmacokinetic profile, CD-1 nude versus C57BL/6 mice ([2]; 30 mg/kg oral): comparable
- duration of plasma concentrations ([2]; 100 mg/kg oral, versus 30 mg/kg): longer duration
